Test results: US12011444B2, “N-substituted indole derivatives as PGE2 receptor modulators” (Idorsia Pharmaceuticals Ltd, priority 2015, dated 2024)

Columns and labels:
PTRGER4 (EP4) = PTRGER4 (EP4) (Homo sapiens (Human), UniProt P35408); experiment: hEP4 b-arrestin assay (PathHunter HEK 293 PTGER4 b-arrestin cells); assay type: cell-based
In short: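 Stably transfected HEK293 cells carrying EP4–ProLink and β-arrestin 2–EA (β-gal fragment complementation), pre-incubated with compound 15 min at 37 °C, then stimulated with PGE2 (20 nM final) for 120 min at 37 °C. Chemiluminescence read after 1 h detection reagent at room temperature; activity per concentration expressed as percent of DMSO control.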

PTGER2 (EP2) = PTGER2 (EP2) (Homo sapiens (Human), UniProt P43116); experiment: hEP2 b-arrestin assay (PathHunter HEK 293 PTGER2 b-arrestin cells); assay type: cell-based
In short: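 HEK293 cells expressing ProLink-tagged EP2 and EA-fused β-arrestin 2 (enzyme fragment complementation) were seeded 24 h, pre-incubated with compound 15 min at 37 °C, then stimulated with 5 μM PGE2 (final) for 120 min.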

[1] = antagonistic activity on hEP4, mean where measured multiple times
[2] = antagonistic activity on hEP2, mean where measured multiple times
[3] = hEP4 b-arrestin assay (values without asterisk)
[4] = hEP2 b-arrestin assay (values without asterisk)

Chain of PTGER2 (EP2) (P43116 whole entry, the tested form may be a part): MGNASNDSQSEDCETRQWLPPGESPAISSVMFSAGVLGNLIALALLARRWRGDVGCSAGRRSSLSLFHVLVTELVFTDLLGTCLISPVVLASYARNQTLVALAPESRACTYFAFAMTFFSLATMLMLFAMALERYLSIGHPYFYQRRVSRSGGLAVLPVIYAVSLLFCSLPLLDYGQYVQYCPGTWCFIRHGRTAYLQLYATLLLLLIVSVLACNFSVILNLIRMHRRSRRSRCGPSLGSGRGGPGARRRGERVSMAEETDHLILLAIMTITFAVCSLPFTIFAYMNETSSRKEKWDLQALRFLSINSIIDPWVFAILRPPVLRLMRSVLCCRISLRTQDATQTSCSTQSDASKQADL
Chain of PTRGER4 (EP4) (P35408 whole entry, looked up, the tested form may be a part): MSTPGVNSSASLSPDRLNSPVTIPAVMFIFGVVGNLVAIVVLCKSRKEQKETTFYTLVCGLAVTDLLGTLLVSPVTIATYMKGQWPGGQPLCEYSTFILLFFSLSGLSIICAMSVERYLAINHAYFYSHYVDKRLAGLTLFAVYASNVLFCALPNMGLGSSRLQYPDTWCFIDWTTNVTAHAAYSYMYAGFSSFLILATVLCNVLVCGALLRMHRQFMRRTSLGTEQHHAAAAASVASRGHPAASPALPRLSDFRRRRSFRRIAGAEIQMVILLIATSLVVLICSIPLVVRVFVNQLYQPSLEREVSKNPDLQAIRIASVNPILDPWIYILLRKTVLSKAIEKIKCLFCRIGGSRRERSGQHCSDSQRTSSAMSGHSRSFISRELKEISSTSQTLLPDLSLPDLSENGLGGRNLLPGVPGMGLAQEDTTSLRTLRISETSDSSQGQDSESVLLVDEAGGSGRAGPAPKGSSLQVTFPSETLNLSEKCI

Structure (SMILES)	IC50 (PTRGER4 (EP4); [1])	IC50 (PTGER2 (EP2); [2])	IC50 (PTRGER4 (EP4); [3])	IC50 (PTGER2 (EP2); [4])
Cc1ccc(F)c2c1cc(C)n2CCNc1cc(-c2ccc(-c3c[nH]cn3)cc2)ncn1 [compound 72, [2-(7-Fluoro-2,4-dimethyl-indol-1-yl)-ethyl]-{6-[4-(1H-imidazol-4-yl)-phenyl]-pyrimidin-4-yl}-amine]	28 nM	45 nM		
Cc1ccc(F)c2c1cc(C)n2CCNc1cc(-c2ccc3ncccc3c2)ncn1 [compound 355]	134 nM	48 nM		
Cc1cc(F)cc2c1cc(C)n2CCNc1cc(-c2ccc3c(C(=O)O)n[nH]c3c2)ncn1 [compound 183, 6-{6-[2-(6-Fluoro-2,4-dimethyl-indol-1-yl)-ethylamino]-pyrimidin-4-yl}-1H-indazole-3-carboxylic acid]	637 nM	49 nM		
COc1cccc2c1cc(C)n2CCNc1cc(-c2ccc(CO)c(C)c2)ncn1 [compound 13, (4-{6-[2-(4-Methoxy-2-methyl-indol-1-yl)-ethylamino]-pyrimidin-4-yl}-2-methyl-phenyl)-methanol]	428 nM	14 nM		
CCNc1cc(-c2cc(NCCn3c(C)cc4c(OC)cccc43)ncn2)cc(Cl)c1C(=O)O [compound 362, 2-Chloro-6-ethylamino-4-{6-[2-(4-methoxy-2-methyl-indol-1-yl)-ethylamino]-pyrimidin-4-yl}-benzoic acid]	281 nM	3 nM		
CCOc1cc(-c2cc(NCCn3c(C#N)cc4c(C)c(F)c(F)cc43)ncn2)sc1C(=O)O [Example 890, 5-{6-[2-(2-Cyano-5,6-difluoro-4-methyl-indol-1-yl)-ethylamino]-pyrimidin-4-yl}-3-ethoxy-thiophene-2-carboxylic acid]			23 nM	2 nM
CCc1cc(-c2cc(NCCn3c(C)cc4ccccc43)ncn2)sc1C(=O)O [compound 6]	911 nM	3 nM		
CCNc1cc(-c2cc(NCCn3c(C)cc4cc(F)cc(F)c43)ncn2)ccc1C(=O)O [compound 167, 4-{6-[2-(5,7-Difluoro-2-methyl-indol-1-yl)-ethylamino]-pyrimidin-4-yl}-2-ethylamino-benzoic acid]	333 nM	6 nM		
CCNc1csc(-c2cc(NCCn3c(C)cc4c(C)ccc(F)c43)ncn2)c1 [Example 1068, [6-(4-Ethylamino-thiophen-2-yl)-pyrimidin-4-yl]-[2-(7-fluoro-2,4-dimethyl-indol-1-yl)-ethyl]-amine]			15 nM	10 nM
CSc1cc(-c2cc(NCCn3c(C)cc4c(C)ccc(Cl)c43)ncn2)cc(Cl)c1C(=O)O [compound 150]	458 nM	54 nM		
COc1ccc(F)c2c1cc(C#N)n2CCNc1cc(-c2ccc(C(=O)O)c(OCC(C)C)c2)ncn1 [Example 949, 4-{6-[2-(2-Cyano-7-fluoro-4-methoxy-indol-1-yl)-ethylamino]-pyrimidin-4-yl}-2-isobutoxy-benzoic acid]			14 nM	7 nM
CCOC(=O)OCOC(=O)c1sc(-c2cc(NCCn3c(C#N)cc4c(OC)ccc(F)c43)ncn2)cc1OCC [Example 1046, 5-{6-[2-(2-Cyano-7-fluoro-4-methoxy-indol-1-yl)-ethylamino]-pyrimidin-4-yl}-3-ethoxy-thiophene-2-carboxylic acid ethoxycarbonyloxymethyl ester]			5 nM	27 nM
Cc1cccc2c1cc(C)n2CCNc1cc(-c2ccc(C(=O)O)c(CC(C)C)c2)ncn1 [compound 140, 4-{6-[2-(2,4-Dimethyl-indol-1-yl)-ethylamino]-pyrimidin-4-yl}-2-isobutyl-benzoic acid]	476 nM	11 nM		
COc1cc(F)c(F)c2c1cc(C)n2CCNc1cc(-c2ccc3c(c2)CC(=O)N3)ncn1 [compound 199]	166 nM	102 nM		
CCOc1cc(-c2cc(NCCn3c(C#N)cc4c(OC)ccc(F)c43)ncn2)sc1C(=O)NS(=O)(=O)c1ccccc1 [Example 814, N-(5-{6-[2-(2-Cyano-7-fluoro-4-methoxy-indol-1-yl)-ethylamino]-pyrimidin-4-yl}-3-ethoxy-thiophene-2-carbonyl)-benzenesulfonamide]			2 nM	7 nM
CCOc1cc(-c2cc(NCCn3c(C#N)cc4cccc(F)c43)ncn2)sc1C(=O)O [Example 892, 5-{6-[2-(2-Cyano-7-fluoro-indol-1-yl)-ethylamino]-pyrimidin-4-yl}-3-ethoxy-thiophene-2-carboxylic acid]			24 nM	1 nM
COc1ccc(F)c2c1cc(C#N)n2CCNc1cc(-c2ccc(-c3ncn(C)c3C)cc2)ncn1 [Example 823, 1-(2-{6-[4-(1,5-Dimethyl-1H-imidazol-4-yl)-phenyl]-pyrimidin-4-ylamino}-ethyl)-7-fluoro-4-methoxy-1H-indole-2-carbonitrile]			5 nM	5 nM
Cc1ccc(F)c2c1cc(C)n2CCNc1cc(-c2cc(F)c(C(=O)O)s2)ncn1 [compound 47]	136 nM	18 nM		
CCOc1cc(-c2cc(NCCn3c(C#N)cc4c(OC)ccc(F)c43)ncn2)sc1C(=O)NC(C)C [Example 1027, 5-{6-[2-(2-Cyano-7-fluoro-4-methoxy-indol-1-yl)-ethylamino]-pyrimidin-4-yl}-3-ethoxy-thiophene-2-carboxylic acid isopropylamide]			3 nM	39 nM

Continued, values first:

IC50 (PTRGER4 (EP4); [1])	IC50 (PTGER2 (EP2); [2])	IC50 (PTRGER4 (EP4); [3])	IC50 (PTGER2 (EP2); [4])	Structure (SMILES)
224 nM	18 nM			CCOc1cc(-c2cc(NCCn3c(C)cc4c(OC)ccc(F)c43)ncn2)ccc1C(=O)O [Example 326, 2-ethoxy-4-{6-[2-(7-fluoro-4-methoxy-2-methyl-indol-1-yl)-ethylamino]-pyrimidin-4-yl}-benzoic acid]
808 nM	8 nM			CCOc1cc(-c2cc(NCCn3c(C)cc4c(Cl)ccc(Cl)c43)ncn2)ccc1C(=O)O [compound 151, 4-{6-[2-(4,7-Dichloro-2-methyl-indol-1-yl)-ethylamino]-pyrimidin-4-yl}-2-ethoxy-benzoic acid]
992 nM	35 nM			Cc1cc2c(Cl)ccc(Cl)c2n1CCNc1cc(-c2ccc(C(=O)O)c(SCC(C)C)c2)ncn1 [compound 370, 4-{6-[2-(4,7-Dichloro-2-methyl-indol-1-yl)-ethylamino]-pyrimidin-4-yl}-2-isobutylsulfanyl-benzoic acid]
296 nM	15 nM			COc1ccc(F)c2c1cc(C)n2CCNc1cc(-c2ccc(C(=O)O)c([N+](=O)[O-])c2)ncn1 [compound 394]
317 nM	26 nM			CCCc1cc(-c2cc(NCCn3c(C)cc4cc(C)cc(F)c43)ncn2)ccc1C(=O)O [compound 267]
102 nM	28 nM			CCc1cc(-c2cc(NCCn3c(C)cc4c(OC)ccc(F)c43)ncn2)ccc1C(=O)O [compound 290]
		61 nM	25 nM	COc1ccc(F)c2c1cc(C#N)n2CCNc1cc(-c2ccc(OCC(=O)O)c(Cl)c2)ncn1 [Example 841, (2-Chloro-4-{6-[2-(2-cyano-7-fluoro-4-methoxy-indol-1-yl)-ethylamino]-pyrimidin-4-yl}-phenoxy)-acetic acid]
		5 nM	5 nM	CCOc1cc(-c2cc(NCCn3c(C)cc4c(OC)ccc(F)c43)ncn2)sc1/C=C/C(=O)O [Example 1016, (E)-3-(3-Ethoxy-5-{6-[2-(7-fluoro-4-methoxy-2-methyl-indol-1-yl)-ethylamino]-pyrimidin-4-yl}-thiophen-2-yl)-acrylic acid]
698 nM	44 nM			Cc1cc(-c2cc(NCCn3c(C)cc4c(Cl)ccc(F)c43)ncn2)ccc1C(=O)O [compound 106]
		144 nM	117 nM	COc1ccc(F)c2c1cc(C#N)n2CCNc1cc(-c2cccc(CC(=O)O)c2)ncn1 [Example 1004, (3-{6-[2-(2-Cyano-7-fluoro-4-methoxy-indol-1-yl)-ethylamino]-pyrimidin-4-yl}-phenyl)-acetic acid]
		64 nM	33 nM	CCOc1cc(-c2cc(NC(C)Cn3c(C)cc4c(OC)ccc(F)c43)ncn2)sc1C(=O)O (racemic) [Example 797, rac-3-Ethoxy-5-{6-[2-(7-fluoro-4-methoxy-2-methyl-indol-1-yl)-1-methyl-ethylamino]-pyrimidin-4-yl}-thiophene-2-carboxylic acid]
714 nM	19 nM			CCc1cc(-c2cc(NCCn3c(C)cc4c(OC)ccc(Cl)c43)ncn2)ccc1C(=O)O [compound 288]
658 nM	3 nM			CCCc1cc(-c2cc(NCCn3c(C)cc4c(F)ccc(F)c43)ncn2)ccc1C(=O)O [compound 144, 4-{6-[2-(4,7-Difluoro-2-methyl-indol-1-yl)-ethylamino]-pyrimidin-4-yl}-2-propyl-benzoic acid]
110 nM	7 nM			COc1ccc(F)c2c1cc(C)n2CCNc1cc(-c2ccc(-c3noc(=O)[nH]3)cc2)ncn1 [compound 313, 3-(4-{6-[2-(7-Fluoro-4-methoxy-2-methyl-indol-1-yl)-ethylamino]-pyrimidin-4-yl}-phenyl)-4H-[1,2,4]oxadiazol-5-one]
477 nM	22 nM			COc1ccc(F)c2c1cc(C)n2CCNc1cc(-c2ccc3cn[nH]c3c2)ncn1 [compound 58, [2-(7-Fluoro-4-methoxy-2-methyl-indol-1-yl)-ethyl]-[6-(1H-indazol-6-yl)-pyrimidin-4-yl]-amine]
67 nM	53 nM			CCNC(=O)Nc1ccc(-c2cc(NCCn3c(C)cc4c(C)ccc(F)c43)ncn2)cc1OC [compound 374]
